Test results from patent publication US20210371351A1, “MIXTURES COMPRISING AT LEAST TWO DIFFERENT NITRIFICATION INHIBITORS SELECTED FROM 2-(3,4-DIMETHYL-1H-PYRAZOL-1-YL)SUCCINIC ACID (DMPSA), 3,4-DIMETHYL PYRAZOLIUM GLYCOLATE (DMPG) AND OTHER COMPOUNDS” (BASF SE, priority 2017, published 2021).

Tested on: nitrification
Test: Example 5: soil incubation in bottles with ammonium sulfate, DMPSA, DCD or mixtures, 5 to 15° C., 0 up to 56 days; recovery NH4 (RE/RC), net recovery NH4 (NE/NC), inhibition of NO3 formation (IE/IC, Böhland; Colby)
Design: unit not given here
Protocol: 100 g soil is filled into 500 ml plastic bottles (e.g. soil sampled from the field) and is moistened to 50% water holding capacity. The soil is incubated at 20° C. for two weeks to activate the microbial biomass. 1 ml test solution, containing the compositions and mixtures of the invention in the appropriate concentration, or DMSO and 5 to 10 mg nitrogen in the form of ammoniumsulfate-N is added to the soil and everything mixed well. Bottles are capped but loosely to allow air exchange. The bottles are then incubated at 5 to 15° C. for 0 up to 56 days.
For analysis, 300 ml of a 1% K2SO4-solution is added to the bottle containing the soil and shaken for 2 hrs in a horizontal shaker at 150 rpm. Then the whole solution is filtered through a Macherey-Nagel Filter MN 807′/. Ammonium and nitrate content is then analyzed in the filtrate in an autoanalyzer at 550 nm (Merck, AA11).
The Böhland equation is described in Böhland, H., et al. (1973) “Mittel zur Hemmung bzw. Regelung der Nitrifikation von Ammoniumstickstoff in Kulturböden”. DDR-Wirtschaftspatent (Economic patent of the German Democratic Republic) C 05c 169 727. Cited by: Peschke, H. (1985) “Zur Bewertung der inhibierenden Wirkung von Nitrifiziden im Boden”, Zbl. Mikrobiol. 140, pp. 583-588.

## 2-(3,4-dimethyl-1H-pyrazol-1-yl)succinic acid and/or 2-(4,5-dimethyl-1H-pyrazol-1-yl)succinic acid [DMPSA]
IT10° C., DAT28, % a.i.: DMPSA 0.50, DCD 0.0125, DMPSA + DCD 0.50 + 0.0125 (40:1)
  IE inhibition of NO3 formation: 62
IT10° C., DAT28, % a.i.: DMPSA 0.50, DCD 0.0143, DMPSA + DCD 0.50 + 0.0143 (35:1)
  IE inhibition of NO3 formation: 62
IT10° C., DAT28, % a.i.: DMPSA 0.50, DCD 0.0167, DMPSA + DCD 0.50 + 0.0167 (30:1)
  IE inhibition of NO3 formation: 62
IT10° C., DAT30, % a.i.: DMPSA 0.5, DCD 1, DMPSA + DCD 0.5 + 1 (1:2)
  IE inhibition of NO3 formation: 79
IT10° C., DAT30, % a.i.: DMPSA 0.5, DCD 3, DMPSA + DCD 0.5 + 3 (1:6)
  IE inhibition of NO3 formation: 79
IT10° C., DAT42, % a.i. DMPSA 0.25, DCD 1
  IE (inhibition of NO3 formation, Böhland): 66
IT10° C., DAT42, % a.i. DMPSA 0.25, DCD 3
  IE (inhibition of NO3 formation, Böhland): 66
IT10° C., DAT42, % a.i. DMPSA 0.30, DCD 0.05
  IE (inhibition of NO3 formation, Böhland): 46
IT10° C., DAT42, % a.i. DMPSA 0.50, DCD 0.08
  IE (inhibition of NO3 formation, Böhland): 52
IT10° C., DAT56, % a.i. DMPSA 0.25, DCD 1
  IE (inhibition of NO3 formation, Böhland): 65
IT10° C., DAT56, % a.i. DMPSA 0.25, DCD 3
  IE (inhibition of NO3 formation, Böhland): 65
IT10° C., DAT56, % a.i. DMPSA 0.30, DCD 0.05
  IE (inhibition of NO3 formation, Böhland): 47
IT10° C., DAT56, % a.i. DMPSA 0.50, DCD 0.08
  IE (inhibition of NO3 formation, Böhland): 47
IT15° C., DAT10, % a.i.: DMPSA 0.5, DCD 1, DMPSA + DCD 0.5 + 1 (1:2)
  IE inhibition of NO3 formation: 50
IT15° C., DAT10, % a.i.: DMPSA 0.5, DCD 3, DMPSA + DCD 0.5 + 3 (1:6)
  IE inhibition of NO3 formation: 50
IT15° C., DAT20, % a.i.: DMPSA 0.5, DCD 1, DMPSA + DCD 0.5 + 1 (1:2)
  IE inhibition of NO3 formation: 74
IT15° C., DAT20, % a.i.: DMPSA 0.5, DCD 3, DMPSA + DCD 0.5 + 3 (1:6)
  IE inhibition of NO3 formation: 74
IT15° C., DAT28, % a.i. DMPSA 0.25, DCD 1
  IE (inhibition of NO3 formation, Böhland): 70
IT15° C., DAT28, % a.i. DMPSA 0.25, DCD 3
  IE (inhibition of NO3 formation, Böhland): 70
IT15° C., DAT28, % a.i.: DMPSA 0.30, DCD 0.05, DMPSA + DCD 0.30 + 0.05 (6:1)
  IE inhibition of NO3 formation: 39
IT15° C., DAT28, % a.i.: DMPSA 0.50, DCD 0.0125, DMPSA + DCD 0.50 + 0.0125 (40:1)
  IE inhibition of NO3 formation: 44
IT15° C., DAT28, % a.i.: DMPSA 0.50, DCD 0.0143, DMPSA + DCD 0.50 + 0.0143 (35:1)
  IE inhibition of NO3 formation: 44
IT15° C., DAT28, % a.i.: DMPSA 0.50, DCD 0.0167, DMPSA + DCD 0.50 + 0.0167 (30:1)
  IE inhibition of NO3 formation: 44
IT15° C., DAT28, % a.i.: DMPSA 0.50, DCD 0.08, DMPSA + DCD 0.50 + 0.08 (6.25:1)
  IE inhibition of NO3 formation: 40
IT15° C., DAT30, % a.i.: DMPSA 0.5, DCD 1, DMPSA + DCD 0.5 + 1 (1:2)
  IE inhibition of NO3 formation: 74
IT15° C., DAT30, % a.i.: DMPSA 0.5, DCD 3, DMPSA + DCD 0.5 + 3 (1:6)
  IE inhibition of NO3 formation: 74
IT15° C., DAT42, % a.i. DMPSA 0.25, DCD 1
  IE (inhibition of NO3 formation, Böhland): 55
IT15° C., DAT42, % a.i. DMPSA 0.25, DCD 3
  IE (inhibition of NO3 formation, Böhland): 55
IT15° C., DAT42, % a.i.: DMPSA 0.30, DCD 0.05, DMPSA + DCD 0.30 + 0.05 (6:1)
  IE inhibition of NO3 formation: 29
IT15° C., DAT42, % a.i.: DMPSA 0.50, DCD 0.08, DMPSA + DCD 0.50 + 0.08 (6.25:1)
  IE inhibition of NO3 formation: 44
IT15° C., DAT56, % a.i. DMPSA 0.25, DCD 1
  IE (inhibition of NO3 formation, Böhland): 35
IT15° C., DAT56, % a.i. DMPSA 0.25, DCD 3
  IE (inhibition of NO3 formation, Böhland): 35
IT15° C., DAT56, % a.i.: DMPSA 0.30, DCD 0.05, DMPSA + DCD 0.30 + 0.05 (6:1)
  IE inhibition of NO3 formation: 27
IT15° C., DAT56, % a.i.: DMPSA 0.50, DCD 0.08, DMPSA + DCD 0.50 + 0.08 (6.25:1)
  IE inhibition of NO3 formation: 27
